Each structure is given as a SMILES string. Bounds are passed on as bounds.

One may read the EC50 as the concentration giving half of the maximal effect. Read a low EC50 as an effect from little substance.

The first experiment has as its target human PDE1b enzyme (Homo sapiens (Human), UniProt Q01064). The experiment is described as follows: PDE1b inhibitory assay (IMAP TR-FRET).
Conditions: not given
A general note: Time-resolved FRET reads energy transfer from a long-lived donor to a nearby acceptor.
The molecule `COc1ccc(Cn2c(=O)n3ncnc3c3c4c(sc32)CN(C(C)C(F)F)CC4)cc1` (stereo not drawn) [Example 151, 9-(1,1-Difluoropropan-2-yl)-6-(4-methoxybenzyl)-8,9,10,11-tetrahydropyrido[4′,3′:4,5]thieno[3,2-e][1,2,4]triazolo[1,5-c]pyrimidin-5(6H)-one] showed a 50% effective concentration (EC50) of 100 to 1000 nM. On the same count and under the same terms, then `Cc1csc2c1c1ncnn1c(=O)n2Cc1ccccc1` [Example 6, 6-Benzyl-9-methylthieno[3,2-e][1,2,4]triazolo[1,5-c]pyrimidin-5(6H)-one], with 100 to 1000 nM.

`COc1ccc(Cn2c(=O)n3ncnc3c3c(CN4CCCC(CO)(CC(C)C)C4)csc32)cc1` (stereo not drawn) [Example 195, 9-((3-(Hydroxymethyl)-3-isobutylpiperidin-1-yl)methyl)-6-(4-methoxybenzyl)thieno[3,2-e][1,2,4]triazolo[1,5-c]pyrimidin-5(6H)-one] returned an EC50 of 100 to 1000 nM.

Regarding `COc1ccc(Cn2c(=O)n3ncnc3c3cc(CN4CCN(c5ccc(F)cc5)CC4)sc32)cc1` [Example 188, 8-((4-(4-Fluorophenyl)piperazin-1-yl)methyl)-6-(4-methoxybenzyl)thieno[3,2-e][1,2,4]triazolo[1,5-c]pyrimidin-5(6H)-one], the 50% effective concentration (EC50) was in the range of 100 to 1000 nM. For `COc1ccc(Cn2c(=O)n3ncnc3c3c4c(sc32)CN(C2CS(=O)(=O)C2)CC4)cc1` [Example 124, 9-(1,1-Dioxidothietan-3-yl)-6-(4-methoxybenzyl)-8,9,10,11-tetrahydropyrido[4′,3′:4,5]thieno[3,2-e][1,2,4]triazolo[1,5-c]pyrimidin-5 (6H)-one], the half-maximal effective concentration (EC50) lay within 100 to 1000 nM. Same read-out and setting: then `COc1ccc(Cn2c(=O)n3ncnc3c3c(CN4C[C@@H](C)O[C@@H](C)C4)csc32)cc1` [Example 78, 9-(((2S,6R)-2,6-Dimethylmorpholino)methyl)-6-(4-methoxybenzyl)thieno[3,2-e][1,2,4]triazolo[1,5-c]pyrimidin-5(6H)-one], with 100 to 1000 nM; and `COc1ccc(Cn2c(=O)n3ncnc3c3c4c(sc32)CN(CC2CCNCC2)CC4)cc1` [Example 182, 6-(4-Methoxybenzyl)-9-(piperidin-4-ylmethyl)-8,9,10,11-tetrahydropyrido[4′,3′:4,5]thieno[3,2-e][1,2,4]triazolo[1,5-c]pyrimidin-5(6H)-one], with 100 to 1000 nM. Turning to `O=c1n(Cc2ccccc2)c2sccc2c2ncnn12` [Example 24, 6-Benzylthieno[3,2-e][1,2,4]triazolo[1,5-c]pyrimidin-5(6H)-one], the concentration for a half-maximal effect (EC50) was in the range of 1000 to 10000 nM. For the molecule `O=c1n(Cc2ccc(Cl)cc2)c2sc3c(c2c2ncnn12)CCNC3` [Example 99, 6-(4-Chlorobenzyl)-8,9,10,11-tetrahydropyrido[4′,3′:4,5]thieno[3,2-e][1,2,4]triazolo[1,5-c]pyrimidin-5(6H)-one], the concentration for a half-maximal effect (EC50) is 1000 to 10000 nM. Molecule `COc1ccc(Cn2c(=O)n3ncnc3c3c4c(sc32)CN(CC2CNCCO2)CC4)cc1` (stereo not drawn) [Example 180, 6-(4-Methoxybenzyl)-9-(morpholin-2-ylmethyl)-8,9,10,11-tetrahydropyrido[4′,3′:4,5]thieno[3,2-e][1,2,4]triazolo[1,5-c]pyrimidin-5(6H)-one] gave an EC50 of 100 to 1000 nM. For the molecule `COc1ccc(Cn2c(=O)n3ncnc3c3cc(CN4CCN(C)CC4)sc32)cc1` [Example 32, 6-(4-Methoxybenzyl)-8-((4-methylpiperazin-1-yl)methyl)thieno[3,2-e][1,2,4]triazolo[1,5-c]pyrimidin-5(6H)-one], the EC50 lay within 100 to 1000 nM. The same measure, in the same setting: the result for `COc1ccc(Cn2c(=O)n3ncnc3c3c4c(sc32)CNCC4)cc1` [Example 183, 6-(4-Methoxybenzyl)-8,9,10,11-tetrahydropyrido[4′,3′:4,5]thieno[3,2-e][1,2,4]triazolo[1,5-c]pyrimidin-5(6H)-one] reads 100 to 1000 nM. The molecule `CCOc1ccc(Cn2c(=O)n3ncnc3c3c4c(sc32)COCC4)cc1` [Example 97, 6-(4-Ethoxybenzyl)-6,8,10,11-tetrahydro-5H-pyrano[4′,3′:4,5]thieno[3,2-e][1,2,4]triazolo[1,5-c]pyrimidin-5-one] had an EC50 of 1000 to 10000 nM.

The same experiment, now with this note: negative log of half-maximal molar inhibitory concentration; 200 nM FAM-cAMP; reported as ranges.
For `COc1ccc(Cn2c(=O)n3ncnc3c3cc(CN4CCN(c5cccc(F)c5)CC4)sc32)cc1` [Example 187, 8-((4-(3-Fluorophenyl)piperazin-1-yl)methyl)-6-(4-methoxybenzyl)thieno[3,2-e][1,2,4]triazolo[1,5-c]pyrimidin-5(6H)-one], the “PDE1b (pEC50)” value is listed as more than 7. As for `COc1ccc(Cn2c(=O)n3ncnc3c3cc(CN4CCS(=O)(=O)CC4)sc32)cc1` [Example 206, 8-((1,1-Dioxidothiomorpholino)methyl)-6-(4-methoxybenzyl)thieno[3,2-e][1,2,4]triazolo[1,5-c]pyrimidin-5(6H)-one], the “PDE1b (pEC50)” value was more than 7. As to `O=c1n(Cc2ccc(F)c(Cl)c2)c2sc(CN3CCOCC3)cc2c2ncnn12` [Example 209, 6-(3-Chloro-4-fluorobenzyl)-8-(morpholinomethyl)thieno[3,2-e][1,2,4]triazolo[1,5-c]pyrimidin-5(6H)-one], the “PDE1b (pEC50)” value is reported as more than 7. As to `COc1ccc(Cn2c(=O)n3ncnc3c3cc(CN4CCN5C(=O)OCC5C4)sc32)cc1` (stereo not drawn) [Example 40, 7-((6-(4-Methoxybenzyl)-5-oxo-5,6-dihydrothieno[3,2-e][1,2,4]triazolo[1,5-c]pyrimidin-8-yl)methyl)tetrahydro-1H-oxazolo[3,4-a]pyrazin-3(5H)-one], the “PDE1b (pEC50)” value is recorded as more than 7. `COc1ccc(Cn2c(=O)n3ncnc3c3c4c(sc32)CN(Cc2scnc2C)CC4)cc1` [Example 123]: the “PDE1b (pEC50)” value is recorded as more than 7. For the molecule `COc1ccc(Cn2c(=O)n3ncnc3c3c4c(sc32)CN(CC2CCCOC2)CC4)cc1` (stereo not drawn) [Example 134, 6-(4-Methoxybenzyl)-9-((tetrahydro-2H-pyran-3-yl)methyl)-8,9,10,11-tetrahydropyrido[4′,3′:4,5]thieno[3,2-e][1,2,4]triazolo[1,5-c]pyrimidin-5(6H)-one], the “PDE1b (pEC50)” value is more than 7. The same measure, in the same setting: then `CC(C)CCc1cc2c(s1)n(Cc1ccc(-c3ccccc3)cc1)c(=O)n1ncnc21` [Example 21, 6-([1,1′-Biphenyl]-4-ylmethyl)-8-isopentylthieno[3,2-e][1,2,4]triazolo[1,5-c]pyrimidin-5(6H)-one], with less than 5; and `COc1ccc(Cn2c(=O)n3ncnc3c3cc(CN4CCOCC4)sc32)cc1F` [Example 207, 6-(3-Fluoro-4-methoxybenzyl)-8-(morpholinomethyl)thieno[3,2-e][1,2,4]triazolo[1,5-c]pyrimidin-5(6H)-one], with more than 7. With `O=c1n(Cc2ccc(-c3ccccc3)cc2)c2sccc2c2ncnn12` [Example 4, 6-([1,1′-Biphenyl]-4-ylmethyl)thieno[3,2-e][1,2,4]triazolo[1,5-c]pyrimidin-5(6H)-one], the “PDE1b (pEC50)” value is less than 5. Turning to `COc1ccc(Cn2c(=O)n3ncnc3c3c4c(sc32)CN(C(=O)C2CCOC2)CC4(F)F)cc1` (stereo not drawn) [Example 166, 11,11-Difluoro-6-(4-methoxybenzyl)-9-(tetrahydrofuran-3-carbonyl)-8,9,10,11-tetrahydropyrido[4′,3′:4,5]thieno[3,2-e][1,2,4]triazolo[1,5-c]pyrimidin-5 (6H)-one], the “PDE1b (pEC50)” value is reported as more than 7.

As for `COc1ccc(Cn2c(=O)n3ncnc3c3c(C)c(CN4CCN(C)C(C)(C)C4)sc32)cc1` [Example 74, 6-(4-Methoxybenzyl)-9-methyl-8-((3,3,4-trimethylpiperazin-1-yl)methyl)thieno[3,2-e][1,2,4]triazolo[1,5-c]pyrimidin-5(6H)-one], the “PDE1b (pEC50)” value was more than 7. With `COc1ccc(Cn2c(=O)n3ncnc3c3c4c(sc32)N(CC2CCOC2)CCC4)cc1` (stereo not drawn) [Example 150, 6-(4-Methoxybenzyl)-8-((tetrahydrofuran-3-yl)methyl)-8,9,10,11-tetrahydropyrido[3′,2′:4,5]thieno[3,2-e][1,2,4]triazolo[1,5-c]pyrimidin-5(6H)-one], the “PDE1b (pEC50)” value is listed as more than 7. As for `COc1ccc(Cn2c(=O)n3ncnc3c3c4c(sc32)CN(C(=O)[C@@H]2CCOC2)CC4)cc1` [Example 169, (R)-6-(4-Methoxybenzyl)-9-(tetrahydrofuran-3-carbonyl)-8,9,10,11-tetrahydropyrido[4′,3′:4,5]thieno[3,2-e][1,2,4]triazolo[1,5-c]pyrimidin-5(6H)-one], the “PDE1b (pEC50)” value is more than 7. Take `COc1ccc(Cn2c(=O)n3ncnc3c3cc(CN4CCC(N5CCOCC5)CC4)sc32)cc1` [Example 191]: the “PDE1b (pEC50)” value is listed as more than 7.

`COc1ccc(Cn2c(=O)n3ncnc3c3c4c(sc32)CN(CC2CCC(=O)O2)CC4)cc1` (stereo not drawn) [Example 126]: the “PDE1b (pEC50)” value is listed as more than 7. Turning to `C[C@@H]1CN(Cc2cc3c(s2)n(Cc2ccc(F)c(Cl)c2)c(=O)n2ncnc32)C[C@H](C)O1` [Example 205, 6-(3-Chloro-4-fluorobenzyl)-8-(((2R,6S)-2,6-dimethylmorpholino)methyl)thieno[3,2-e][1,2,4]triazolo[1,5-c]pyrimidin-5(6H)-one], the “PDE1b (pEC50)” value is more than 7.

Regarding `COc1ccc(Cn2c(=O)n3ncnc3c3c(C)c(CN4CCN(S(C)(=O)=O)CC4)sc32)cc1` [Example 63, 6-(4-Methoxybenzyl)-9-methyl-8-((4-(methylsulfonyl)piperazin-1-yl)methyl)thieno[3,2-e][1,2,4]triazolo[1,5-c]pyrimidin-5(6H)-one], the “PDE1b (pEC50)” value is more than 7. `COc1ccc(Cn2c(=O)n3ncnc3c3c(C)c(CNCc4cccnc4)sc32)cc1` [Example 52, 6-(4-Methoxybenzyl)-9-methyl-8-(((pyridin-3-ylmethyl)amino)methyl)thieno[3,2-e][1,2,4]triazolo[1,5-c]pyrimidin-5(6H)-one]: the “PDE1b (pEC50)” value is listed as more than 7. For `COc1ccc(Cn2c(=O)n3ncnc3c3c(CNCC4CCOCC4)csc32)cc1` [Example 203, 6-(4-Methoxybenzyl)-9-((((tetrahydro-2H-pyran-4-yl)methyl)amino)methyl)thieno[3,2-e][1,2,4]triazolo[1,5-c]pyrimidin-5(6H)-one], the “PDE1b (pEC50)” value is recorded as more than 7.

Consider `COc1ccc(Cn2c(=O)n3ncnc3c3c(C)c(CN(CCO)Cc4ccccc4)sc32)cc1` [Example 48, 8-((Benzyl(2-hydroxyethyl)amino)methyl)-6-(4-methoxybenzyl)-9-methylthieno[3,2-e][1,2,4]triazolo[1,5-c]pyrimidin-5(6H)-one], for which the “PDE1b (pEC50)” value is listed as more than 7.

Values taken from patent US10092575B2, “Substituted thiophene- and furan-fused azolopyrimidine-5-(6H)-one compounds” (DART NEUROSCIENCE (CAYMAN) LTD., priority 2012, dated 2018).
